Laboratory results: ChEMBL document CHEMBL3763034, “Exploring the importance of zinc binding and steric/hydrophobic factors in novel HCV replication inhibitors” (Bioorg Med Chem Lett, 2016)
pEC50, pKd: −log10 of the molar value.

Tests used:
[1] = tested on: Hepatitis C virus; test: Antiviral activity against HCV1b replicon (I389luc-ubi-neo/NS3-3/5.1) infected in Huh5-2 cells assessed as inhibition of viral RNA replication by luciferase reporter gene assay; type: functional, organism-based, Hepacivirus hominis; conditions: genotype 1b, Huh-5-2
[2] = Selectivity index, ratio of CC50 for human Huh-9-13 cells to EC50 for hepatitis C virus genotype 1b I389luc-ubi-neo/NS3-3/5.1 replicon infected in human Huh-9-13 cells; type: toxicity, cell-based; conditions: read-out: Ratio CC50/EC50
[3] = Selectivity index, ratio of CC50 for human Huh5-2 cells to EC50 for hepatitis C virus genotype 1b I389luc-ubi-neo/NS3-3/5.1 replicon infected in human Huh5-2 cells; type: toxicity, cell-based, Huh-5-2; conditions: read-out: Ratio CC50/EC50
[4] = tested on: Hepatitis C virus; test: Antiviral activity against HCV 1b replicon (I389luc-ubi-neo/NS3-3/5.1) infected in Huh-9-13 cells assessed as inhibition of viral RNA replication by RT-PCR method; type: functional, organism-based, Hepacivirus hominis; conditions: genotype 1b
[5] = Cytotoxicity against human Huh-9-13 cells assessed as reduction in cell metabolic activity after 72 hrs by MTS assay; type: ADME, cell-based
[6] = Cytotoxicity against human Huh5-2 cells assessed as reduction in cell metabolic activity after 72 hrs by MTS assay; type: ADME, cell-based, Huh-5-2
[7] = Binding affinity to zinc by UV-VIS spectroscopic analysis

SMILES	pEC50 [1]	selectivity ratio [2]	selectivity ratio [3]	pEC50 [4]	CC50 at 72 h [5]	CC50 at 72 h [6]	pKd [7]
O=C(O)c1cccc2[nH]c(-c3ccccc3O)nc12	4.62	> 4.3	> 8.2	4.64	> 100 µM	> 197 µM	–
COC(=O)c1cccc2oc(-c3c(O)ccc4ccccc34)nc12	4.55	–	> 1.8	–	–	> 50 µM	–
CNC(=O)c1cccc2[nH]c(-c3ccccc3O)nc12	4.80	15	> 12	5.51	47 µM	> 187 µM	–
NC(=O)c1cccc2oc(-c3ccccc3O)nc12	4.33	–	> 4.2	–	–	> 197 µM	–
O=C(O)c1cccc2c1nc(-c1ccccc1O)n2Cc1ccccc1	5.59	> 167	> 55	6.22	> 100 µM	> 145 µM	–
COC(=O)c1cccc2oc(-c3cccc4cccnc34)nc12	< 4.30	–	–	–	–	> 50 µM	–
O=C(O)c1cccc2oc(-c3ccccc3O)nc12	5.31	–	5.1	–	–	25 µM	6.30
CNC(=O)c1cccc2oc(-c3ccccc3O)nc12	3.93	–	> 1.6	–	–	> 186 µM	4.28
COC(=O)c1cccc2oc(-c3cc4ccccc4cc3O)nc12	4.51	–	> 1.6	–	–	> 50 µM	–
COC(=O)c1cccc2oc(-c3ccccc3S)nc12	5.60	–	1.6	–	–	4.1 µM	6.64
CN(C)C(=O)c1cccc2oc(-c3ccccc3O)nc12	3.96	–	> 1.6	–	–	> 177 µM	–
COC(=O)c1cccc2oc(-c3ccc4ccccc4c3O)nc12	4.28	–	1.2	–	–	64 µM	–
COC(=O)c1cccc2oc(-c3ccccc3O)nc12	4.40	–	1.8	–	–	71 µM	4.19
COC(=O)c1cccc2c1nc(-c1ccccc1O)n2Cc1ccccc1	5.12	106	> 19	6.05	95 µM	> 140 µM	–
COC(=O)c1cccc2[nH]c(-c3ccccc3O)nc12	3.97	–	1.3	–	–	132 µM	3.72
O=C(NCc1ccccc1)c1cccc2oc(-c3ccccc3O)nc12	5.00	–	> 5	–	–	> 50 µM	–
CCCCNC(=O)c1cccc2oc(-c3ccccc3O)nc12	5.14	–	5.4	–	–	39 µM	–
CNC(=O)c1cccc2c1nc(-c1ccccc1O)n2Cc1ccccc1	5.08	1.8	12	4.68	38 µM	101 µM	–
